Laboratory results: patent US20210317077A1, “Crystalline Forms of N1-(1-Cyanocycloproply)-N2-((1S)-1-{4'-[(1R-2,2-Difluoro-1-Hydroxyethyl]Biphenyl-4-YL}-2,2,2-Trifluoroethyl)-4-Fluoro-L-Leucinamide” (Intervet Inc., priority 2018, published 2021)

Columns and labels:
[1] = competitive slurry in ethanol/water at 25, 30, 35 and 40° C.; enantiotropically related forms
Description: Competitive slurry experiments of Forms A and B in ethanol/water at 25° C., 30° C., 35° C. and 40° C. were used to establish the transition temperature of the enantiotropic forms.

[2] = Description: The Form B crystals were added to the SLS and PVP to form a slurry. […] FIG. 9 depicts complimentary in situ process analytical data from Raman spectroscopy (on solute concentration and solid phase composition) and Focused Beam Reflectance Measurement (FBRM characterizing number and dimension of the dispersed particles).
[3] = Form A: temperature range where Form B is stable; Form B: process solvent above 50° C., few hours, no Form A seeds

Row | Compound | temperature at which the form is the more stable form [1] | time for conversion of most Form B crystals to Form A crystals ([2]; 80° C., slurry in aqueous SLS and PVP, after introduction of Form A crystal seeds) | Form A detected before seeding ([2]; Form B slurry in aqueous SLS and PVP raised to 80° C., before Form A seeds) | form conversion during API process and DP processing timeframes [3] | relative solubility of the forms (Raman solute signal) ([2]; 80° C., slurry in aqueous SLS and PVP)
1 | CC(C)(F)C[C@H](N[C@@H](c1ccc(-c2ccc([C@@H](O)C(F)F)cc2)cc1)C(F)(F)F)C(=O)NC1(C#N)CC1 [Form B] | ≤ 30 °C | ≤ 2 h | no Form A detected | converts to Form A | 
2 | CC(C)(F)C[C@H](N[C@@H](c1ccc(-c2ccc([C@@H](O)C(F)F)cc2)cc1)C(F)(F)F)C(=O)NC1(C#N)CC1 [Form A] | ≥ 40 °C |  |  | does not convert to Form B | lower solubility
